Each structure is given as a SMILES string. Entries after “also recorded” stand apart in the source; their conditions may differ.

The test system of data set [1] is Rho (MRTF/SRF-regulated gene transcription, SRE-Luciferase). The following applies: Evelyn et al. 2007; cited from earlier work.
The subject of data set [2] is peritoneal fibrosis. The following applies: Sakai et al. 2013; cited from earlier work.
Data set [3] deals with human dermal fibroblasts. As to the kind of experiment: Myofibroblast differentiation / αSMA staining in dermal fibroblasts (TGFβ-induced normal, SSc). Type of data set: cell-based. Particulars: for myofibroblast differentiation / phenotype (αSMA): in vitro, TGFβ-stimulated normal human dermal fibroblasts and SSc fibroblasts; for potency to reduce alpha-SMA staining, human primary dermal fibroblasts: 72-hour assay. How it is done:
B-D) Human dermal fibroblasts were treated with TGFβ (10 ng/ml) for 3 days with various concentrations of CCG-58150.
(§1) A & B) CCG-203971 inhibits LPA-induced COL1A2 and ACTA2 (αSMA) mRNA in NIH-3T3 cells.

In data set [4] the test system is skin fibrosis. In words: Bleomycin skin injury (dermal fibrosis) model. Particulars: mouse; 100 mg/kg. Type of data set: in vivo. An excerpt: Mice are weighed once prior to study start. Dermal fibrosis is induced in Groups 2-5 by daily intradermal injections of bleomycin over 14 days. Group 1 will receive vehicle 1 (PBS) over the same days. Daily therapeutic dosing with either vehicle 2 or CCG-58150 by oral gavage coincide with the intradermal injection study days. Mice are anesthetized using isoflurane during intradermal injections. The back is shaved and the injection site ( 1 cm2) cleaned with three alternating passes of chlorhexidine and warm, sterile saline or water. The periphery of the injection site is circled using a […] marker as a visual aid. Bleomycin is dissolved in sterile PBS at a concentration of 1 mg/ml, sterile filtered, and frozen in aliquots appropriately sized for the daily injections prior to the start of the dosing period. 100 μl of bleomycin or PBS (Vehicle 1) is administered to anesthetized mice by intradermal injection using a 0.5 cc TB syringe with a 27 G needle. Following bleomycin or vehicle administration, test substance (CCG-58150) or vehicle 2 (20% DMSO/30% PEG/50% PBS) is administered by oral gavage at 10 μL/gram of body weight. […] Images are collected on an Evos microscope and skin thickness and intensity of fibrosis of two distinct images from each animal is analyzed using ImageJ. […]

A short description of data set [5]: In vivo pharmacokinetics.
Data set [6] in a line: Acute cellular toxicity. Particulars: FIG. 2B; compared with CCG-1423. The data set is classed as cell-based.
The subject of data set [7] is COL1A2 and ACTA2 (αSMA) mRNA. As to the kind of experiment: LPA-induced COL1A2 and ACTA2 mRNA in NIH-3T3 cells. Type of data set: cell-based.
From the text: as §1

The test system of data set [8] is cellular migration. As to the kind of experiment: Cellular migration. Particulars: FIG. 5. Type of data set: cell-based.
Data set [9] is described as follows: In vivo tolerability (general statement). Particulars: compared with CCG-1423.
Data set [10] relates to Rho (MRTF/SRF-regulated gene transcription, SRE-Luciferase). As to the kind of experiment: SRE-Luciferase reporter, Rho inhibition. The data set is classed as cell-based. How it is done: In the course of these studies, the rho transcription reporter method that uses the rho-specific SRE-Luciferase was developed. This transcriptional reporter method, described in detail therein, was used for screening a small chemical library for possible rho inhibitors (Evelyn et al., Mol Canc. Ther. 6:2249-60, 2007; herein incorporated by reference in its entirety). Additional inhibitors were identified as described below.
CCG-1423 was a cellular IC50 of ˜1 uM to inhibit SRE-Luciferase expression (Evelyn, C. R., Wade, S. M., Wang, Q., Wu, M., Iniguez-Lluhi, J. A., Merajver, S. D., and Neubig, R. R. 2007. CCG-1423: a small-molecule inhibitor of RhoA transcriptional signaling. Mol Cancer Ther 6:2249-2260). It has been used in many labs as a tool compound for blocking MRTF/SRF-regulated gene transcription (Sandbo et al., et al., 2011. Am J Physiol Lung Cell Mol Physiol 301:L656-666; Sandbo, et al., 2009. Am J Respir Cell Mol Biol 41:332-338; Evelyn, et al., 2007. Mol Cancer Ther 6:2249-2260; Sandbo et al., 2013. J Biol Chem 288:15466-15473; Prencipe et al., 2013. Prostate 73:743-753; Sakai et al., 2013. FASEB J 27:1830-1846; Buller et al., 2012. Glia 60:1906-1914; Chong et al., 2012. PLoS One 7:e40966; Jin et al., 2011. J Clin Invest 121:918-929; Mae et al., 2010. Biochem Biophys Res Commun 393:877-882; Evelyn et al., 2010. Bioorg Med Chem Lett 20:665-672; Lu et al., 2009. Curr Med Chem 16:1355-1365). CCG-1423 acts by preventing nuclear accumulation of MRTF (Evelyn et al, supra; Jin et al., supra).
For orientation: In a reporter assay the amount or activity of a reporter protein is the signal.

In data set [11] the test system is CTGF mRNA. As to the kind of experiment: CTGF mRNA by qRT-PCR in LPA-stimulated NIH3T3 cells. The data set is classed as cell-based. A general note: Real-time PCR tracks product formation cycle by cycle.
Data set [12] can be described thus: Stability in liver microsomes. Type of data set: in vitro ADME. (Microsomes from liver hold many membrane-bound enzymes, among them those of drug oxidation.)
Data set [13] can be described thus: Preliminary tolerability study in normal mice. Particulars: 10 mg/kg i.p. daily for 2-weeks. The data set is classed as in vivo. On the procedure: The experiments shown in FIG. 4 are repeated CCG-58150 and derivatives thereof. A range of doses (0.1, 1, and 10 mg/kg) is used to increase the likelihood of finding a well-tolerated dose that is effective.

Turning to `CC(ONC(=O)c1cc(C(F)(F)F)cc(C(F)(F)F)c1)C(=O)Nc1ccc(Cl)cc1` (stereo not shown) [CCG-1423], the “reduction of SRF-mediated transcription versus ROCK inhibitors” value in [1] is on record as “more effective than ROCK inhibitors”. In data set [2], the “activity in peritoneal fibrosis model” value is reported as “in vivo activity”.

`O=C(Nc1ccc(Cl)cc1)C1CCCN(C(=O)c2cccc(-c3ccco3)c2)C1` (stereo not shown) [CCG-203971]: the “potency relative to perfenidone” value in [3] (FIG. 4C) amounted to 100 ×. In addition, the “myofibroblast differentiation / phenotype (αSMA)” value in data set [3] was “reverses the myofibroblast phenotype; also recorded: Suppression of myofibroblast activation”. For the same molecule, the “fibrosis in bleomycin skin injury model” value in [4] is listed as “prevented fibrosis; also recorded: very strongly significant effect; also recorded: prevents skin fibrosis”. Besides, in [5] (in vivo), the hepatic clearance entry is listed as “rapid hepatic clearance” and the “pharmacokinetics (overall)” value is recorded as “poor pharmacokinetics”. Also, in [5] (in vivo, po), the oral absorption entry is given as “low oral absorption”. Besides, the acute cellular toxicity result in [6] is listed as “less acute cellular toxicity; also recorded: reduced acute cellular toxicity”. The “LPA-induced COL1A2 and ACTA2 (αSMA) mRNA” value in data set [7] is “inhibits”. For the same molecule, the cellular migration result in data set [8] is “inhibition of cellular migration”. The tolerability in vivo result in data set [9] is “much better tolerated in vivo”.

The IC50 is the concentration that gives 50% inhibition. In turn, `c1ccc(-c2nnc(SCCC3OCCCO3)o2)cc1` [compound 20321] came in with an IC50 in data set [10] of more than 100 µM.

On to `Cc1cccc(-c2nnc(SCCC(=O)O)o2)c1` [compound 58146], for which, in data set [10] (FIG. 2C, listed as CCG-58146), the “potency in SRE-luciferase” value is “nM IC50; also recorded: markedly higher potency”. Besides, in data set [8], the cellular migration entry is reported as “inhibition of cellular migration”.

With `O=C(O)CCSc1nnc(-c2ccc(Cl)cc2Cl)o1` [compound 58150], the IC50 in data set [10] turned out to be 0.004 µM; in [11] (Mus musculus, FIG. 3, NIH3T3 cells stimulated with LPA, read-out: IC50, inhibition of expression of endogenous CTGF mRNA), 0.001 µM. Besides, the “potency in a 24-hour assay in NIH 3T3 cells” value in data set [11] (24-hour assay) is recorded as “nM potency”. Moreover, the figures for the “potency to reduce alpha-SMA staining, human primary dermal fibroblasts” value in data set [3] (listed as CCG-58150) and in data set [3] (listed as CCG-518150) were “fM-pM” and “fM-pM potency”, respectively. For the same molecule, the “myofibroblast differentiation / phenotype (αSMA)” value in [3] was “αSMA inhibition”; in data set [3] (listed as CCG-58150) it was “blocks myofibroblast differentiation at pM concentrations”. The “maximum suppression, inhibition of % αSMA positive cells” value in [3] (maximum effect) was 60%. The “blood levels 24 hours after a single oral dose relative to in vitro IC50” value in data set [5] (24 hours, single oral dose) is on record as “over 10 fold”. Besides, the “pharmacokinetics (overall)” value in data set [5] (in vivo) was “very good in vivo pharmacokinetics”. Moreover, in data set [12], the “stability in liver microsomes” value is “highly favorable stability”. Further, the tolerability result in data set [13] is listed as “tolerated”. For the same molecule, in data set [8], the cellular migration entry is reported as “inhibition of cellular migration”.

`COC(=O)CSc1nnc(-c2ccc(C)cc2)o1` [compound 105557] came in with an IC50 in data set [10] of 5.2 µM.

In data set [10], `COc1ccc(-c2nnc(SCCC(=O)O)n2C)cc1` [compound 107983] had an IC50 of more than 100 µM.

In data set [10], `O=C(O)CCSc1nc2ccccc2n1Cc1ccccc1` [compound 111085] displayed an IC50 of more than 100 µM.

`Cc1ccc(-c2nnc(SCC(=O)O)o2)cc1` [compound 114898] returned a half-inhibitory concentration (IC50) in [10] of 6.7 µM.

`O=C(O)CCSc1nnc(-c2cccc(Br)c2)o1` [compound 123853] returned an IC50 in data set [10] of 6.4 µM.

`Cc1cccc(-c2nnc(SCC(=O)O)o2)c1` [compound 123860] displayed an IC50 in [10] of 43 µM.

`O=C(O)CCSc1nnc(-c2ccncc2)o1` [compound 123867] yielded an IC50 in data set [10] of more than 100 µM.

In data set [10], `O=C(O)CCSc1nnc(-c2cccnc2)o1` [compound 123869] came in with an IC50 of 87 µM.

`Cc1occc1-c1nnc(SCCC(=O)O)o1` [compound 123873]: the IC50 in data set [10] is more than 100 µM.

In [10], `Cc1cccc(-c2nnc(SCC(N)=O)o2)c1` [compound 211912] had an IC50 of more than 100 µM.

As to `CCCN(CCC)C(=O)CSc1nnc(-c2cccc(C)c2)o1` [compound 211913], in data set [10], the IC50 was more than 100 µM.

On to `O=C(O)CCSc1nc(-c2ccccc2)cc(=O)[nH]1` [compound 211914], for which, in data set [10], the IC50 is more than 100 µM.

Take `O=C(O)CSc1nnc(-c2ccc(Cl)cc2Cl)o1` [compound 215027]: the IC50 in [10] is more than 100 µM.

Take `CCOC(=O)CSc1nnc(-c2ccc(Cl)cc2Cl)o1` [compound 215028]: the IC50 in data set [10] is more than 100 µM.

In the case of `CC(C)(C)NC(=O)CSc1nnc(-c2ccc(Cl)cc2Cl)o1` [compound 215029], the IC50 in [10] was more than 100 µM.

Turning to `COc1ccc(-c2nnc(SCCC(=O)O)[nH]2)cc1` [compound 215104], in data set [10], the IC50 was more than 100 µM.

Take `COCCNC(=O)CCSc1nnc(-c2ccc(Cl)cc2Cl)o1` [compound 215160]: the IC50 in data set [10] was more than 100 µM.

Turning to `COc1cc(C)ccc1-c1nnc(SCCC(=O)O)o1` [compound 215201], inhibition in data set [10] was half-maximal at 0.023 µM (IC50).

In data set [10], `O=C(O)CCOc1nnc(-c2ccc(Cl)cc2Cl)s1` [compound 215240] came in with an IC50 of 24 µM.

In the case of `O=C(O)CCCc1nnc(-c2ccc(Cl)cc2Cl)o1` [compound 222620], in data set [10], the IC50 was more than 100 µM.

Turning to `COc1c(Cl)ccc(-c2nnc(SCCC(=O)O)o2)c1Cl` [compound 222623], the IC50 in data set [10] turned out to be 0.0086 µM.

In the case of `COc1cc(Cl)cc(Cl)c1-c1nnc(SCCC(=O)O)o1` [compound 222687], in [10], half-maximal inhibition (IC50) required 10 µM.

In data set [10], `O=C(O)CCSc1nnc(-c2ccc(F)cc2Cl)o1` [compound 232002] yielded an IC50 of 0.025 µM.

In data set [10], `O=C(O)CCCCSc1nnc(-c2ccc(Cl)cc2Cl)o1` [compound 232503, 5-((5-(2,4-dichlorophenyl)-1,3,4-oxadiazol-2-yl)thio)pentanoic acid] registered a half-inhibitory concentration (IC50) of 0.003 µM.

The record behind these values is US20150250769A1, “METHODS AND COMPOSITIONS FOR INHIBITING RHO/MRTF-MEDIATED DISEASES AND CONDITIONS” (THE REGENTS OF THE UNIVERSITY OF MICHIGAN, priority 2014, published 2015).
